{
  "source": "patent US20060111333A1",
  "about": "“Structural, behavioral characterization, and synthesis of attractants for migratory lamprey” (priority 2004, published 2006)",
  "key": {"migratory sea lampreys": {"tested_on": "migratory sea lampreys", "test": "behavioral assay in large 2-choice maze", "format": "in vivo, sea lamprey", "details": "14 trials of 4 lampreys", "procedure": "Confirming biological activity using a behavioral assay. Migratory sea lampreys were tested at night in large (9×1.8 meters (m)) 2-choice mazes supplied with natural lake and rivers waters (400 L min^−1) designed to simulate the scenario of lamprey encountering a river plume in a lake. Test odors were pumped down one side (in a way shown by dye to effect complete mixing) and appropriate controls (carriers, etc.) down the other. Trials lasted 15 min and commenced when groups of 4 sea lamprey were released from the upstream section of the maze and the time they spent in the stimulus side or its control noted. Experiments typically employed 14 trails and were evaluated by t-test after arc-sign transformation (Vrieze et al., Can. J. Fish. Aquat. Sci., 58, 2374-2385 (2001))."}, "[1]": {"tested_on": "olfactory epithelium of migratory adult sea lamprey", "test": "electro-olfactogram (EOG) recording of olfactory activity", "format": "in vivo", "details": "odorant pulsed over the nose, FIG. 2 insets", "description": "Using electro-olfactogram recording (EOG) to screen for olfactory activity. The EOG measures extracellular voltage transients believed to reflect large numbers of olfactory receptor generator potential (Sorensen et al. in: The Physiology of Fishes, 2nd ed., (ed., R. E. Evans), 375-406, (CRC Press, FL, 1998)). To accomplish EOG recording, freshly-captured migratory adult sea lamprey were anesthetized, immobilized, and their olfactory epithelium exposed following established protocols (Li et al., J. Gen. Physiol., 105, 569-589 (1995); and Li et al., Petromyzon marinus, J. Comp Physiol. A., 180, 429-438 (1997)). One electrode was placed on the head and the other positioned to find a region of maximum sensitivity to our standard, 10^−5 M L-arginine. Test odorants were then pulsed over the nose for 3-sec intervals with breaks. All stimuli were tested at least twice. Aliquots of appropriate solvents were diluted and tested as controls."}, "[2]": {"tested_on": "adult lamprey olfactory system", "details": "with high specificity; Polkinghorne 2001, Li 1995, Li 1997; cited from earlier work"}},
  "data": [
    {"compound": "petromyzosterol disulfate [compound 2]", "values": [
      {"measurement": "behavioral activity (attraction) in maze", "setting": "migratory sea lampreys; at 10^−11 M", "value": "consistently attractive"},
      {"measurement": "EOG threshold (lowest concentration detected by EOG recording)", "setting": "[1]", "value": "10^−12 M"}
    ]},
    {"compound": "CC(C)[C@@H](CC[C@@H](C)[C@H]1CC[C@H]2[C@@H]3[C@H](OS(=O)(=O)[O-])C[C@H]4C[C@@H](NCCCN5CCCC5=O)CC[C@]4(C)[C@H]3CC[C@]12C)OS(=O)(=O)[O-].[Na+].[Na+]", "note": "[compound 3, petromyzonamine disulfate]", "values": [
      {"measurement": "behavioral activity (attraction) in maze", "setting": "migratory sea lampreys; at 10^−12 M", "value": "strongly attracted"},
      {"measurement": "behavioral activity (attraction) in maze", "setting": "migratory sea lampreys; at 10^−13 M", "value": "strongly attracted"},
      {"measurement": "EOG threshold (lowest concentration detected by EOG recording)", "setting": "[1]", "value": "10^−13 M"}
    ]},
    {"compound": "C[C@H](CCCOS(=O)(=O)[O-])[C@H]1CC[C@H]2[C@@H]3[C@H](O)C[C@H]4C[C@H](O)CC[C@]4(C)[C@H]3C[C@H](O)[C@]12C.[Na+]", "note": "[compound 1, petromyzonol sulfate, reference compound]", "values": [
      {"measurement": "behavioral activity (attraction) in maze", "setting": "migratory sea lampreys; at 10^−11 M", "value": "only weak and somewhat inconsistent behavioral activity"},
      {"measurement": "concentration at which the adult lamprey olfactory system detects the product", "setting": "[2]", "value": "10^−12 Molar (M)"},
      {"measurement": "EOG threshold (lowest concentration detected by EOG recording)", "setting": "[1]", "value": "below 10^−12 M"}
    ]},
    {"compound": "C[C@H](CCC(=O)O)[C@H]1CC[C@H]2[C@@H]3[C@H](O)C[C@H]4C[C@H](O)CC[C@]4(C)[C@H]3C[C@H](O)[C@]12C", "note": "[ACA, allocholic acid]", "values": [
      {"measurement": "concentration at which the adult lamprey olfactory system detects the product", "setting": "[2]", "value": "10^−11 Molar (M)"}
    ]}
  ]
}
